The text below walks through data of paper PMC4281095 (Journal of Medicinal Chemistry, 2014).

Each structure is given as a SMILES string.

One assay deals with hIMPDH2 (Homo sapiens, UniProt P12268). Briefly: Assessment of hIMPDH2 inhibition, NADH production. The assay is classed as biochemical. Particulars: read-out: hIMPDH2 inhibition.
The target in assay [1] is T1, CpIMPDH (Cryptosporidium parvum, UniProt Q8T6T2).
T1 sequence (Q8T6T2 1-400): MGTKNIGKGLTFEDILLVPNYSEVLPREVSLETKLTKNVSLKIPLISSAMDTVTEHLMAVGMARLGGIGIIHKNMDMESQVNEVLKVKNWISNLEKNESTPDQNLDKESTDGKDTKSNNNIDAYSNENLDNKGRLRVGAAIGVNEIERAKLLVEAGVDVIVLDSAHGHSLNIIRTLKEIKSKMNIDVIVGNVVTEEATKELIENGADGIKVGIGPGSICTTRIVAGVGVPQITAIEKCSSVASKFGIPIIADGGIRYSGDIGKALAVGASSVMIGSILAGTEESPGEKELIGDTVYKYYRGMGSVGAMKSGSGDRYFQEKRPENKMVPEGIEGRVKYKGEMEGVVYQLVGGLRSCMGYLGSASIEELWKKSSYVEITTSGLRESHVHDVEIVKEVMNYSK
The experiment in a line: CpIMPDH inhibition, NADH production monitored by fluorescence. Particulars: for CpIMPDH inhibition, result in words: qualitative statement; for fold increase in CpIMPDH activity: relative to 8a; for fold loss of CpIMPDH potency / inhibition: relative to 8k.

Assay [2] concerns the target T1, CpIMPDH. Particulars: read-out: CpIMPDH IC50; cited from earlier work.
Another assay addresses hIMPDH1. Particulars: read-out: hIMPDH1 Ki; cited from earlier work.

The inhibition is the share of the control response that was lost under treatment. Consider `COc1cccc(NC(=O)Cn2ncc3c(=O)oc4ccccc4c32)c1` [8a, 4-oxo-N-(3-methoxyphenyl)-[1]benzopyrano[4,3-c]pyrazole-1(4H)-acetamide], for which, at hIMPDH2, the inhibition at 5 µM is < 20%.
In the case of `O=C(Cn1ncc2c(=O)oc3ccccc3c21)Nc1cccc(Cl)c1` [8b], the “CpIMPDH inhibition, result in words” value on CpIMPDH [1] is reported as “loss of inhibition”.
Turning to `O=C(Cn1ncc2c(=O)oc3ccccc3c21)Nc1ccccc1Cl` [8c], the “CpIMPDH inhibition, result in words” value at CpIMPDH [1] is given as “no inhibitory activity”.
For the compound `O=C(Cn1ncc2c(=O)oc3ccccc3c21)Nc1ccc(F)cc1` [8d], the “fold increase in CpIMPDH activity” value on CpIMPDH [1] worked out at 3 fold.
With `O=C(Cn1ncc2c(=O)oc3ccccc3c21)Nc1ccc(C(F)(F)F)cc1` [8e], the “fold increase in CpIMPDH activity” value at CpIMPDH [1] was 3 fold.
`O=C(Cn1ncc2c(=O)oc3ccccc3c21)Nc1ccc(Cl)cc1Cl` [8g]: the “CpIMPDH inhibition, result in words” value at CpIMPDH [1] is on record as “no inhibition activity”.
Take `COc1ccc(NC(=O)Cn2ncc3c(=O)oc4ccccc4c32)cc1OC` [8i]: at CpIMPDH [1], the “CpIMPDH inhibition, result in words” value is reported as “loss of enzyme inhibition”.
On to `COc1cc(N(C)C(=O)Cn2ncc3c(=O)oc4ccccc4c32)ccc1Cl` [8l], for which, on CpIMPDH [1], the “CpIMPDH inhibition, result in words” value is “loss of activity”.
Regarding `COc1cc(NC(=O)C(C)n2ncc3c(=O)oc4ccccc4c32)ccc1Cl` (centres unmarked) [8m], the “fold loss of CpIMPDH potency / inhibition” value on CpIMPDH [1] is 3 fold.
With `O=C(Cn1ncc2c(=O)oc3ccccc3c21)Nc1ccc2[nH]cnc2c1` [13a], on CpIMPDH [1], the “CpIMPDH inhibition, result in words” value is “only weak or no inhibitory activity”.
For the compound `O=C(Cn1ncc2c(=O)oc3ccccc3c21)Nc1ccc2[nH]ccc2c1` [13c], on CpIMPDH [1], the “CpIMPDH inhibition, result in words” value is reported as “only weak or no inhibitory activity”.
For `COc1cc(NC(=O)Cn2ncc3c2-c2ccccc2OC3)ccc1Cl` [13e], the “fold loss of CpIMPDH potency / inhibition” value at CpIMPDH [1] is listed as 3 fold.
As a reminder, the IC50 is the concentration needed to halve the response being measured. For orientation: Ki means the dissociation constant of the complex between target and ligand, obtained from inhibition or displacement. As to `COc1c(C)c2c(c(O)c1C/C=C(\C)CCC(=O)O)C(=O)OC2` [mycophenolic acid], the half-inhibitory concentration (IC50) on CpIMPDH [2] is ~10 µM. Moreover, the Ki at hIMPDH1 is 0.033 µM.
